The target in assay [1] is T1, PBP3 from Acinetobacter baumannii (ATCC 19606) (Acinetobacter baumannii, UniProt A0ABX6CK25).
T1 sequence (A0ABX6CK25 64-610): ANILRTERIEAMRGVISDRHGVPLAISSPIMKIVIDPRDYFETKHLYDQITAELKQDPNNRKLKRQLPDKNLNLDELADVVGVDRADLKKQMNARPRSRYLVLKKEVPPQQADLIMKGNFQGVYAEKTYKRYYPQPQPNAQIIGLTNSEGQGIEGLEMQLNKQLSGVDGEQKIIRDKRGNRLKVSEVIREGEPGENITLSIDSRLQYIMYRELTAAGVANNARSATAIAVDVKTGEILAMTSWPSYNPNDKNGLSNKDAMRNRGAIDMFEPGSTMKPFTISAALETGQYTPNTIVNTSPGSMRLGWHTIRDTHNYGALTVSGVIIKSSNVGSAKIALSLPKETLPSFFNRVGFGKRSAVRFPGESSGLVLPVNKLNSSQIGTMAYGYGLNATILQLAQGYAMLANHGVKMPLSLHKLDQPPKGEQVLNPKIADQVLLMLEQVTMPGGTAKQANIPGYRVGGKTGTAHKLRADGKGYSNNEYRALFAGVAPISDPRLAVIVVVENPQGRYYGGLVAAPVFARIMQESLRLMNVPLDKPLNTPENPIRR
The assay is described as follows: Bocillin-FL fluorescence polarization competition binding, A. baumannii PBP3. The settings on record: fluorescence polarization competition binding assay using Bocillin-FL; read-out: A. baumannii PBP3 Potency. The procedure, abridged: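 Purified PBP was preincubated with inhibitor (E. coli PBP3 1.5 μM, 30 min; P. aeruginosa PBP3 0.75 μM, A. baumannii PBP3 0.2 μM and PBP1a 1 μM, 15 min), then Bocillin-FL (0.1 μM; 0.05 μM for PBP1a) added and FP read up to 60 min. EC50 = 50% loss of bound probe.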

Assay [2] deals with P. aeruginosa CDC-0095. Briefly: microbe, parasite or virus in culture. Format: cell-based. The note with it: Pseudomonas aeruginosa, CDC0095, read-out: Minimum inhibitory concentration, P. aeruginosa CDC-0095.
The test system of assay [3] is A. baumannii 1258916. The assay is described as follows: microbe, parasite or virus in culture. Format: cell-based, Acinetobacter baumannii. The settings on record: Acinetobacter baumannii, 1258916, read-out: MIC, A. baumannii 1258916.
Assay [4] concerns A. baumannii CDC-0033. Briefly: microbe, parasite or virus in culture. Format: cell-based. The settings on record: Acinetobacter baumannii, CDC0033, read-out: MIC, A. baumannii CDC-0033.
The subject of assay [5] is A. baumannii CDC-0083. Briefly: microbe, parasite or virus in culture. The settings on record: Acinetobacter baumannii, CDC0083, read-out: MIC, A. baumannii CDC-0083. Format: cell-based.
The test system of assay [6] is N. gonorrhoeae WHO M. Briefly: Liquid broth MIC in Fastidious broth. The note with it: Neisseria gonorrhoeae, read-out: Minimum Inhibitory Concentration, WHO M.
Assay [7] concerns N. gonorrhoeae WHO X. The assay is described as follows: Liquid broth MIC in Fastidious broth. The note with it: Neisseria gonorrhoeae, read-out: Minimum Inhibitory Concentration, WHO X.
Assay [8] relates to P. aeruginosa CDC-0090. Briefly: microbe, parasite or virus in culture. Format: cell-based. The note with it: Pseudomonas aeruginosa, CDC0090, read-out: Minimum inhibitory concentration, P. aeruginosa CDC-0090.
Assay [9] concerns N. gonorrhoeae WHO K. Briefly: Liquid broth MIC in Fastidious broth. The note with it: Neisseria gonorrhoeae, read-out: Minimum Inhibitory Concentration, WHO K.
The subject of assay [10] is P. aeruginosa CDC-0110. The assay is described as follows: microbe, parasite or virus in culture. Format: cell-based. The note with it: Pseudomonas aeruginosa, CDC0110, read-out: Minimum inhibitory concentration, P. aeruginosa CDC-0110.
Assay [11] concerns A. baumannii ATCC 17978. Briefly: microbe, parasite or virus in culture. Format: cell-based. The settings on record: Acinetobacter baumannii, ATCC17978, read-out: MIC, A. baumannii ATCC 17978.

≈ marks a conversion by molar mass, not a printed value.

Regarding `O=C(NCCN1CCN(C(=O)NC(C(=O)N[C@H]2Cc3ccc(F)c(C(=O)O)c3OB2O)c2cc(F)c(O)c(O)c2Cl)C1=O)Nc1cccnc1` (stereo partly drawn) [Example 251, (3R)-3-(2-(2-chloro-5-fluoro-3,4-dihydroxyphenyl)-2-(2-oxo-3-(2-(3-(pyridin-3-yl)ureido)ethyl)imidazolidine-1-carboxamido)acetamido)-7-fluoro-2-hydroxy-3,4-dihydro-2H-benzo[e][1,2]oxaborinine-8-carboxylic acid], in assay [1], the IC50 is less than 10 µM. The MIC in assay [2] was 8 to 16 µg/mL (≈ 11.1 to 22.3 µM); in assay [3], less than 1 µg/mL; in [4] it was 2 to 4 µg/mL (≈ 2.79 to 5.57 µM); in [5], 2 to 4 µg/mL (≈ 2.79 to 5.57 µM); in assay [6], 16 to 32 µg/mL (≈ 22.3 to 44.6 µM); in assay [7], more than 64 µg/mL. Also, the MIC in assay [8] was 2 to 4 µg/mL (≈ 2.79 to 5.57 µM); in assay [9], more than 64 µg/mL; in assay [10], less than 1 µg/mL; in assay [11], less than 1 µg/mL.

For the molecule `O=C(NCCCN1CCN(C(=O)N[C@H](C(=O)N[C@H]2Cc3ccc(F)c(C(=O)O)c3OB2O)c2cc(F)c(O)c(O)c2Cl)C1=O)c1ccccc1` [Example 252, (R)-3-((S)-2-(3-(3-benzamidopropyl)-2-oxoimidazolidine-1-carboxamido)-2-(2-chloro-5-fluoro-3,4-dihydroxyphenyl)acetamido)-7-fluoro-2-hydroxy-3,4-dihydro-2H-benzo[e][1,2]oxaborinine-8-carboxylic acid], the IC50 in assay [1] was in the range of 50 to 250 µM. Further, the MIC in assay [2] is more than 128 µg/mL; in [3], more than 128 µg/mL; in [4], more than 128 µg/mL; in assay [5], more than 128 µg/mL; in assay [6], more than 64 µg/mL; in assay [7], more than 64 µg/mL. The MIC in assay [8] was more than 128 µg/mL; in assay [9], more than 64 µg/mL; in [10] it was more than 128 µg/mL; in assay [11] it was 8 to 16 µg/mL (≈ 11.2 to 22.4 µM).

As to `O=C(NCCCN1CCN(C(=O)N[C@@H](C(=O)N[C@H]2Cc3ccc(F)c(C(=O)O)c3OB2O)c2cc(F)c(O)c(O)c2Cl)C1=O)c1ccccc1` [Example 253, (R)-3-((R)-2-(3-(3-benzamidopropyl)-2-oxoimidazolidine-1-carboxamido)-2-(2-chloro-5-fluoro-3,4-dihydroxyphenyl)acetamido)-7-fluoro-2-hydroxy-3,4-dihydro-2H-benzo[e][1,2]oxaborinine-8-carboxylic acid], the IC50 in assay [1] is less than 10 µM. The MIC is 2 to 4 µg/mL (≈ 2.79 to 5.59 µM) in assay [2]; less than 1 µg/mL in assay [3]; less than 1 µg/mL in assay [4]; less than 1 µg/mL in assay [5]; 4 to 8 µg/mL (≈ 5.59 to 11.2 µM) in assay [6]; more than 64 µg/mL in assay [7]. Besides, the MIC in assay [8] is 2 to 4 µg/mL (≈ 2.79 to 5.59 µM); in assay [9], more than 64 µg/mL; in [10] it was 2 to 4 µg/mL (≈ 2.79 to 5.59 µM); in [11] it was less than 1 µg/mL.

Take `O=C(NCCCN1CCN(C(=O)N[C@H](C(=O)N[C@H]2Cc3ccc(F)c(C(=O)O)c3OB2O)c2cc(F)c(O)c(O)c2Cl)C1=O)c1cccc(O)c1` [Example 254, (R)-3-((S)-2-(2-chloro-5-fluoro-3,4-dihydroxyphenyl)-2-(3-(3-(3-hydroxybenzamido)propyl)-2-oxoimidazolidine-1-carboxamido)acetamido)-7-fluoro-2-hydroxy-3,4-dihydro-2H-benzo[e][1,2]oxaborinine-8-carboxylic acid]: the IC50 in [1] lay within 10 to 50 µM. The MIC in [2] was more than 128 µg/mL; in assay [3] it was more than 128 µg/mL; in assay [4], 32 to 64 µg/mL (≈ 43.7 to 87.4 µM); in [5] it was more than 128 µg/mL; in assay [6] it was more than 64 µg/mL; in assay [7] it was more than 64 µg/mL. For the same molecule, the MIC in [8] is more than 128 µg/mL; in assay [9] it was more than 64 µg/mL; in assay [10] it was more than 128 µg/mL; in assay [11], 2 to 4 µg/mL (≈ 2.73 to 5.47 µM).

`O=C(NCCCN1CCN(C(=O)N[C@@H](C(=O)N[C@H]2Cc3ccc(F)c(C(=O)O)c3OB2O)c2cc(F)c(O)c(O)c2Cl)C1=O)c1cccc(O)c1` [Example 255, (R)-3-((R)-2-(2-chloro-5-fluoro-3,4-dihydroxyphenyl)-2-(3-(3-(3-hydroxybenzamido)propyl)-2-oxoimidazolidine-1-carboxamido)acetamido)-7-fluoro-2-hydroxy-3,4-dihydro-2H-benzo[e][1,2]oxaborinine-8-carboxylic acid]: the IC50 in [1] is less than 10 µM. For the same molecule, the MIC in [2] is 2 to 4 µg/mL (≈ 2.73 to 5.47 µM); in assay [3], less than 1 µg/mL; in [4], 2 to 4 µg/mL (≈ 2.73 to 5.47 µM); in assay [5], less than 1 µg/mL; in [6] it was 4 to 8 µg/mL (≈ 5.47 to 10.9 µM); in assay [7], more than 64 µg/mL. Further, the MIC in assay [8] is less than 1 µg/mL; in assay [9] it was more than 64 µg/mL; in [10] it was less than 1 µg/mL; in [11] it was less than 1 µg/mL.

With `O=C(NCCCN1CCN(C(=O)NC(C(=O)N[C@H]2Cc3ccc(F)c(C(=O)O)c3OB2O)c2cc(F)c(O)c(O)c2Cl)C1=O)c1ccncc1` (stereo partly drawn) [Example 256, (3R)-3-(2-(2-chloro-5-fluoro-3,4-dihydroxyphenyl)-2-(3-(3-(isonicotinamido)propyl)-2-oxoimidazolidine-1-carboxamido)acetamido)-7-fluoro-2-hydroxy-3,4-dihydro-2H-benzo[e][1,2]oxaborinine-8-carboxylic acid], the IC50 in assay [1] was less than 10 µM. Besides, the MIC in [2] is 2 to 4 µg/mL (≈ 2.79 to 5.58 µM); in assay [3] it was less than 1 µg/mL; in assay [4] it was 2 to 4 µg/mL (≈ 2.79 to 5.58 µM); in assay [5] it was less than 1 µg/mL; in assay [6] it was 16 to 32 µg/mL (≈ 22.3 to 44.6 µM); in assay [7] it was more than 64 µg/mL. For the same molecule, the MIC is 2 to 4 µg/mL (≈ 2.79 to 5.58 µM) in assay [8], more than 64 µg/mL in assay [9], 2 to 4 µg/mL (≈ 2.79 to 5.58 µM) in [10] and less than 1 µg/mL in assay [11].

As for `O=C(NCCCN1CCN(C(=O)NC(C(=O)N[C@H]2Cc3ccc(F)c(C(=O)O)c3OB2O)c2cc(F)c(O)c(O)c2Cl)C1=O)c1nccs1` (stereo partly drawn) [Example 257, (3R)-3-(2-(2-chloro-5-fluoro-3,4-dihydroxyphenyl)-2-(2-oxo-3-(3-(thiazole-2-carboxamido)propyl)imidazolidine-1-carboxamido)acetamido)-7-fluoro-2-hydroxy-3,4-dihydro-2H-benzo[e][1,2]oxaborinine-8-carboxylic acid], the IC50 in [1] is less than 10 µM. Also, the MIC is 2 to 4 µg/mL (≈ 2.77 to 5.53 µM) in assay [2]; less than 1 µg/mL in assay [3]; 2 to 4 µg/mL (≈ 2.77 to 5.53 µM) in assay [4]; less than 1 µg/mL in [5]; 16 to 32 µg/mL (≈ 22.1 to 44.3 µM) in [6]; more than 64 µg/mL in assay [7]. For the same molecule, the MIC in assay [8] was 2 to 4 µg/mL (≈ 2.77 to 5.53 µM); in assay [9], more than 64 µg/mL; in [10], 2 to 4 µg/mL (≈ 2.77 to 5.53 µM); in assay [11] it was less than 1 µg/mL.

As to `O=C(NCCCN1CCN(C(=O)N[C@@H](C(=O)N[C@H]2Cc3ccc(F)c(C(=O)O)c3OB2O)c2cc(F)c(O)c(O)c2Cl)C1=O)Nc1cccc(O)c1` [Example 258, (R)-3-((R)-2-(2-chloro-5-fluoro-3,4-dihydroxyphenyl)-2-(3-(3-(3-(3-hydroxyphenyl)ureido)propyl)-2-oxoimidazolidine-1-carboxamido)acetamido)-7-fluoro-2-hydroxy-3,4-dihydro-2H-benzo[e][1,2]oxaborinine-8-carboxylic acid], the IC50 in assay [1] was less than 10 µM. Besides, the MIC in assay [2] is less than 1 µg/mL; in assay [3] it was less than 1 µg/mL; in assay [4], less than 1 µg/mL; in assay [5], less than 1 µg/mL; in assay [6], 4 to 8 µg/mL (≈ 5.36 to 10.7 µM); in assay [7], more than 64 µg/mL. The MIC was less than 1 µg/mL in [8], more than 64 µg/mL in assay [9], less than 1 µg/mL in assay [10] and less than 1 µg/mL in assay [11].

These data come from patent US20240270762A1, “PENICILLIN-BINDING PROTEIN INHIBITORS” (priority 2021, published 2024).
